# The source made the active and inactive calls. The rule behind the calls is not given here.
# How the values were obtained:
# [1] = system: Mycobacterium tuberculosis; assay: Antimycobacterial activity against marker-free avirulent autoluminescent Mycobacterium tuberculosis H37Ra assessed as inhibition of relative light unit relative to control; type: functional
# [2] = system: Mycobacterium tuberculosis; assay: Antimycobacterial activity against Mycobacterium tuberculosis H37Rv infected in female BALB/c mouse assessed as reduction in relative light unit in lung at 300 mg/kg, po administered once daily for 5 days; type: functional; settings: time 5 day
# [3] = Oral bioavailability in male Sprague-Dawley rat at 100 mg/kg measured upto 240 hrs by LC/MS/MS analysis; type: ADME, organism-based; settings: in vivo
# [4] = Half life in male Sprague-Dawley rat at 1 mg/kg, iv measured upto 240 hrs by LC/MS/MS analysis; type: ADME, organism-based; settings: in vivo
# [5] = system: Mycobacterium tuberculosis; assay: Antimycobacterial activity against Mycobacterium tuberculosis H37Rv infected in female BALB/c mouse assessed as reduction in relative light unit in lung, po administered once daily for 5 days; type: functional, organism-based; settings: dose 30-300 mg/kg, time 5.0 day
# [6] = system: Mycobacterium tuberculosis; assay: Antimycobacterial activity against Mycobacterium tuberculosis H37Rv infected in female BALB/c mouse assessed as reduction in relative light unit in lung at 30 mg/kg, po in presence of Rifampicin administered once daily for 5 days; type: functional; settings: time 5 day
# [7] = molecular target: T1, Enoyl-[acyl-carrier-protein] reductase [NADH] (Mycobacterium tuberculosis) (UniProt P9WGR1); assay: Inhibition of C-terminal his-tagged Mycobacterium tuberculosis InhA extracted from Escherichia coli BL21(DE3) cells using trans-2-dodecenoyl-coenzyme A as substrate at 25 microM by UV based analysis
# T1 sequence (whole entry): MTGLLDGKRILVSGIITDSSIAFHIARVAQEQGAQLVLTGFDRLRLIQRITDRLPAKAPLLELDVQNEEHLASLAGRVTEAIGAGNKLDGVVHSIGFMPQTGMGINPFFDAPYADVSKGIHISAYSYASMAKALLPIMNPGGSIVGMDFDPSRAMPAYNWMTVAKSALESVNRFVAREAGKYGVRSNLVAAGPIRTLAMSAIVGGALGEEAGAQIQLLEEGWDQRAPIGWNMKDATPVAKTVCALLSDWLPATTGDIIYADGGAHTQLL
# [8] = system: Mycobacterium tuberculosis; assay: Antimycobacterial activity against wild-type Mycobacterium tuberculosis H37Rv incubated for 4 weeks by MABA assay; type: functional; settings: 672 h
# [9] = system: Mycobacterium tuberculosis; assay: Antimycobacterial activity against Mycobacterium tuberculosis H37Rv infected in female BALB/c mouse assessed as reduction in relative light unit in lung at 100 mg/kg, po in presence of Rifampicin administered once daily for 5 days; type: functional; settings: time 5 day
# [10] = system: Cryptococcus neoformans; assay: Antifungal activity against Cryptococcus neoformans assessed as fungal growth inhibition incubated for 72 hrs; type: functional
# [11] = system: Mycobacterium tuberculosis; assay: Antimycobacterial activity against Mycobacterium tuberculosis UAlRv infection model using mouse RAW264.7 cells assessed as inhibition of bacterial growth incubated for 72 hrs; type: functional
# [12] = system: Mycolicibacterium smegmatis; assay: Antimycobacterial activity against recombinant Mycobacterium smegmatis transfected with pMV261-Mtb InhA assessed as inhibition of bacterial growth at 0.25 to 64 microg/ml incubated for 3 days; type: functional; settings: 72 h, dose 0.25-64 µg/ml, time 3 day
# [13] = Tmax in male Sprague-Dawley rat at 100 mg/kg, po measured upto 240 hrs by LC/MS/MS analysis; type: ADME, organism-based; settings: in vivo
# [14] = system: Escherichia coli; assay: Antibacterial activity against Escherichia coli assessed as bacterial growth inhibition incubated for 24 hrs; type: functional
# [15] = system: Candida albicans; assay: Antifungal activity against Candida albicans assessed as fungal growth inhibition incubated for 48 hrs; type: functional
# [16] = system: Staphylococcus aureus; assay: Antibacterial activity against Staphylococcus aureus assessed as bacterial growth inhibition incubated for 24 hrs; type: functional
# [17] = AUC (0 to infinity) in male Sprague-Dawley rat at 100 mg/kg, po measured upto 240 hrs by LC/MS/MS analysis; type: ADME, organism-based; settings: in vivo
# [18] = system: Mycobacterium tuberculosis; assay: Antimycobacterial activity against Mycobacterium tuberculosis H37Rv infected in female BALB/c mouse assessed as reduction in relative light unit in lung at 100 mg/kg, po administered once daily for 5 days; type: functional; settings: time 5 day
# [19] = system: Mycobacterium tuberculosis; assay: Antimycobacterial activity against Mycobacterium tuberculosis H37Rv infected in female BALB/c mouse assessed as reduction in relative light unit in spleen at 300 mg/kg, po administered once daily for 5 days; type: functional; settings: time 5 day
# [20] = system: L02; assay: Cytotoxicity against human L02 cells incubated for 48 hrs by CCK-8 assay; type: toxicity, cell-based; settings: l02, 48 h
# [21] = AUC (0 to infinity) in male Sprague-Dawley rat at 1 mg/kg, iv measured upto 240 hrs by LC/MS/MS analysis; type: ADME, organism-based; settings: in vivo
# [22] = Toxicity in BALB/c mouse infected with Mycobacterium tuberculosis H37Rv assessed as optimal condition at 300 mg/kg, po administered once daily for 5 days; type: organism-based; settings: in vivo, 120 h, time 5 day
# [23] = Half life in male Sprague-Dawley rat at 100 mg/kg, po measured upto 240 hrs by LC/MS/MS analysis; type: ADME, organism-based; settings: in vivo
# [24] = Cmax in male Sprague-Dawley rat at 100 mg/kg, po measured upto 240 hrs by LC/MS/MS analysis; type: ADME, organism-based; settings: in vivo
# [25] = system: Mycolicibacterium smegmatis; assay: Antimycobacterial activity against recombinant Mycobacterium smegmatis transfected with pMV261 assessed as inhibition of bacterial growth at 0.25 to 64 microg/ml incubated for 3 days; type: functional; settings: 72 h, dose 0.25-64 µg/ml, time 3 day
# [26] = system: Mycolicibacterium smegmatis; assay: Selectivity ratio of MIC for recombinant Mycobacterium smegmatis transfected with pMV261-Mtb InhA to MIC for recombinant Mycobacterium smegmatis transfected with pMV261; type: functional
# [27] = system: Mycobacterium tuberculosis; assay: Antimycobacterial activity against Mycobacterium tuberculosis H37Rv assessed as inhibition of growth by kill kinetic analysis; type: functional
smiles,measurement,setting,value
O=c1[nH]c2c(Br)csc2c(O)c1-c1ccc(C(F)(F)F)cc1,MIC90,[1],16 µg/mL
Cc1cccc(-c2c(O)c3scc(Br)c3[nH]c2=O)c1,MIC90,[1],0.5 µg/mL
same,Activity,[2],0.64 log10RLU
same,bioavailability,[3],16.4%
same,half-life,[4],35.6 h
same,Activity,[5],Dose-Dependent Effect
same,Activity,[6],0.29 log10RLU
same,inhibition,[7],Active
same,MIC,[8],0.5 µg/mL
same,Activity,[9],5.31 log10RLU
same,MIC80,[10],> 64 µg/mL
same,MIC90,[11],1 µg/mL
same,MIC,[12],4 µg/mL
same,Tmax,[13],6 h
same,MIC99,[14],> 64 µg/mL
same,MIC80,[15],> 64 µg/mL
same,MIC99,[16],> 64 µg/mL
same,AUC,[17],19700 µM·h
same,Activity,[18],4.93 log10RLU
same,Activity,[19],0.37 log10RLU
same,Activity,[20],Toxic
same,AUC,[21],1200 µM·h
same,Activity,[22],Non-Toxic
same,half-life,[23],48 h
same,Cmax,[24],283 µM
same,MIC,[25],1 µg/mL
same,Selectivity ratio,[26],2
COc1cccc(-c2c(O)c3scc(Br)c3[nH]c2=O)c1,MIC90,[1],8 µg/mL
NNC(=O)c1ccncc1 [ISONIAZID],MIC,[8],0.03 µg/mL
same,MIC50,[27],0.33 µM
CC(C)(C)c1ccc(-c2c(O)c3scc(Br)c3[nH]c2=O)cc1,MIC90,[1],> 64 µg/mL
Cc1ccccc1-c1c(O)c2scc(Br)c2[nH]c1=O,MIC90,[1],0.5 µg/mL
same,MIC80,[10],> 64 µg/mL
same,MIC99,[14],> 64 µg/mL
same,MIC80,[15],> 64 µg/mL
same,MIC99,[16],> 64 µg/mL
O=c1[nH]c2c(Br)csc2c(O)c1-c1cccc(OC(F)(F)F)c1,MIC90,[1],> 64 µg/mL
O=c1[nH]c2c(Br)csc2c(O)c1-c1cccc(Cl)c1,MIC90,[1],0.5 µg/mL
same,inhibition,[7],Active
same,MIC90,[11],1 µg/mL
same,MIC99,[14],> 64 µg/mL
same,MIC99,[16],> 64 µg/mL
same,Activity,[20],Toxic
CC1(C)CCC(Cc2cc(O)c(-c3ccccc3)c(=O)[nH]2)CC1,MIC50,[27],0.05 µM
CO[C@H]1/C=C/O[C@@]2(C)Oc3c(C)c(O)c4c(O)c(c(/C=N/N5CCN(C)CC5)c(O)c4c3C2=O)NC(=O)/C(C)=C\C=C\[C@H](C)[C@H](O)[C@@H](C)[C@@H](O)[C@@H](C)[C@H](OC(C)=O)[C@@H]1C [RIFAMPIN],MIC90,[1],0.25 µg/mL
same,MIC,[8],0.125 µg/mL
O=c1[nH]c2c(Br)csc2c(O)c1-c1cccc([N+](=O)[O-])c1,MIC90,[1],> 64 µg/mL
O=c1[nH]c2c(Br)csc2c(O)c1-c1ccc2ccccc2c1,MIC90,[1],16 µg/mL
C[C@@H]1[C@H](O)[C@@H](C)/C=C/C=C/C=C/C=C/C=C/C=C/C=C/[C@H](O[C@@H]2O[C@H](C)[C@@H](O)[C@H](N)[C@@H]2O)C[C@@H]2O[C@](O)(C[C@@H](O)C[C@@H](O)[C@H](O)CC[C@@H](O)C[C@@H](O)CC(=O)O[C@H]1C)C[C@H](O)[C@H]2C(=O)O [AMPHOTERICIN B],MIC80,[10],0.5 µg/mL
same,MIC80,[15],0.125 µg/mL
O=c1[nH]c2c(Br)csc2c(O)c1-c1ccc(Br)cc1,MIC90,[1],16 µg/mL
CC1(C)S[C@@H]2[C@H](NC(=O)[C@H](N)c3ccc(O)cc3)C(=O)N2[C@H]1C(=O)O [AMOXICILLIN],MIC99,[14],0.05 µg/mL
same,MIC99,[16],0.5 µg/mL
N#Cc1cccc(-c2c(O)c3scc(Br)c3[nH]c2=O)c1,MIC90,[1],> 64 µg/mL
O=c1[nH]c2c(Br)csc2c(O)c1-c1ccccc1Cl,MIC90,[1],1 µg/mL
Cc1ccc(-c2c(O)c3scc(Br)c3[nH]c2=O)cc1,MIC90,[1],32 µg/mL
O=c1[nH]c2c(Br)csc2c(O)c1-c1ccco1,MIC90,[1],8 µg/mL
O=c1[nH]c2c(Br)csc2c(O)c1-c1ccc([N+](=O)[O-])cc1,MIC90,[1],32 µg/mL
O=c1[nH]c2c(Br)csc2c(O)c1-c1ccc(Cl)cc1Cl,MIC90,[1],> 64 µg/mL
Cc1csc2c(O)c(-c3ccccc3)c(=O)[nH]c12,MIC90,[1],4 µg/mL
N#Cc1ccc(-c2c(O)c3scc(Br)c3[nH]c2=O)cc1,MIC90,[1],32 µg/mL
COc1ccc(-c2c(O)c3scc(Br)c3[nH]c2=O)cc1,MIC90,[1],16 µg/mL
O=c1[nH]c2c(Br)csc2c(O)c1-c1cccs1,MIC90,[1],4 µg/mL
O=c1[nH]c2c(Br)csc2c(O)c1-c1ccccc1F,MIC90,[1],0.5 µg/mL
same,MIC80,[10],> 64 µg/mL
same,MIC99,[14],> 64 µg/mL
same,MIC80,[15],> 64 µg/mL
same,MIC99,[16],> 64 µg/mL
O=c1[nH]c2c(Br)csc2c(O)c1-c1cccc(Oc2ccccc2)c1,MIC90,[1],32 µg/mL
O=c1[nH]c2c(Br)csc2c(O)c1-c1ccc(F)cc1,MIC90,[1],2 µg/mL
CC(=O)Oc1c(-c2ccccc2)c(=O)n(C(C)=O)c2c(Br)csc12,MIC90,[1],4 µg/mL
O=c1[nH]c2c(Br)csc2c(O)c1-c1ccc(Cl)cc1,MIC90,[1],> 64 µg/mL
Cc1ccc(C)c(-c2c(O)c3scc(Br)c3[nH]c2=O)c1,MIC90,[1],32 µg/mL
O=c1[nH]c2c(Br)csc2c(O)c1-c1cccc(Br)c1,MIC90,[1],16 µg/mL
O=c1[nH]c2c(Br)csc2c(O)c1-c1cccc(F)c1,MIC90,[1],0.5 µg/mL
same,MIC80,[10],> 64 µg/mL
same,MIC99,[14],> 64 µg/mL
same,MIC80,[15],> 64 µg/mL
same,MIC99,[16],> 64 µg/mL
O=c1[nH]c2c(Br)csc2c(O)c1-c1ccc(Cl)cc1F,MIC90,[1],16 µg/mL
O=c1[nH]c2c(Br)csc2c(O)c1-c1ccccc1,MIC90,[1],0.5 µg/mL
same,MIC99,[14],> 64 µg/mL
same,MIC99,[16],> 64 µg/mL
